33 compounds from US8716284B2, “Adamantyl diamide derivatives and uses of same” (H. Lundbeck A/S, priority 2008, dated 2014) can be followed below.

The first experiment deals with T1, rat metabotropic glutamate receptor 5 (mGluR5) (Rattus norvegicus, UniProt P31424).
T1 construct: expressed in transfected cells; host or cells: HEK 293
T1 sequence (P31424 21-1171 isoform P31424-2 limits assumed): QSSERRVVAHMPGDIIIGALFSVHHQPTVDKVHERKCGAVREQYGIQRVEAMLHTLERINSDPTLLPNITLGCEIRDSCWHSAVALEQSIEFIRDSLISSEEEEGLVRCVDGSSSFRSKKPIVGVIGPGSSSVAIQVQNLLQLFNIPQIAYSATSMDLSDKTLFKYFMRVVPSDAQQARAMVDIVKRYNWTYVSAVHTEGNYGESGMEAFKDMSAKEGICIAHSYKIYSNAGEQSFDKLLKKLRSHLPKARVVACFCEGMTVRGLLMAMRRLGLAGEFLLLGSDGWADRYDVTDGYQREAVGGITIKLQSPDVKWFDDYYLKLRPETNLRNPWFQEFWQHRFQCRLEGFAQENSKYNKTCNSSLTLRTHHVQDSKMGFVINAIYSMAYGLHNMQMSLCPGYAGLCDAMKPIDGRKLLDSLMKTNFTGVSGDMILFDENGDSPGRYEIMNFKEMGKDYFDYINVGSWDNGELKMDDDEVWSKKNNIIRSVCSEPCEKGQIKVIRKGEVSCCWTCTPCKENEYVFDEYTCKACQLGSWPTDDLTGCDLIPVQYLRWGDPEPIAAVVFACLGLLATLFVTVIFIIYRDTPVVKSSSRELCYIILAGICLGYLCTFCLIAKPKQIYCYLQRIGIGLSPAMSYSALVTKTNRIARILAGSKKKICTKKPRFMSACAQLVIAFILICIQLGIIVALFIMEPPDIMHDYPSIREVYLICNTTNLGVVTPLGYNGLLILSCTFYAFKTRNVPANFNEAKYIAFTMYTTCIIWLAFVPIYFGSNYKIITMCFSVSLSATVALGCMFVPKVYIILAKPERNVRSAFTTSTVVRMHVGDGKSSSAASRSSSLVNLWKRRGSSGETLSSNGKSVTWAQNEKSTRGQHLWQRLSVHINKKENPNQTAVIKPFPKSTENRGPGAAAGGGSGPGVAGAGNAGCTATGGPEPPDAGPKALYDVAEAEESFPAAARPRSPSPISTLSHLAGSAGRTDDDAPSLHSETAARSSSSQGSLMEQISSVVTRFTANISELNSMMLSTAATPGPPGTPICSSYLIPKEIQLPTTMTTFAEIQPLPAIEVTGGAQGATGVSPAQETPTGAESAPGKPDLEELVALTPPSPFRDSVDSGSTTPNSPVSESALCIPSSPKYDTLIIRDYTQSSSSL
As to the kind of experiment: Calcium mobilization assay (FLIPR) for negative or positive allosteric activity, HEK 293 cells. It is filed as cell-based. The conditions noted are these: HEK293, negative allosteric modulation, inhibition of EC80 glutamate response; read-out: FLIPR maximum inhibition. The essentials: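 Peak Fluo-4 calcium signal over 3 min at room temperature, minus basal, fitted by Hill equation, in stable rat mGluR5 HEK 293 cells (HBSS/HEPES pH 7.4, BSA, probenecid). Inhibition scored against EC80 glutamate, potentiation against EC20 glutamate, glutamate given with compound.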
In general terms: A change in cytosolic calcium serves as a functional read-out for many receptors and channels.
On to `O=C(NC12CC3CC(C1)CC(NC(=O)c1ccc4ccccc4n1)(C3)C2)c1ccc2ccccc2n1` [Example 12, N,N′-(1,3-adamantylene)bis(quinoline-2-carboxamide)], for which the Emax lay in the range of 63 to 99%.

For `Cc1cncc(C(=O)NC23CC4CC(C2)CC(NC(=O)c2cc(Cl)ccc2F)(C4)C3)n1` [Example 161, 6-Methyl-pyrazine-2-carboxylic acid [3-(5-chloro-2-fluoro-benzoylamino)-adamantan-1-yl]-amide], the Emax was 70 to 99%.

On to `Cc1cncc(C(=O)NC23CC4CC(CC(NC(=O)c5cccc(OC(F)F)c5)(C4)C2)C3)n1` [Example 162, 6-Methyl-pyrazine-2-carboxylic acid [3-(3-difluoro-methoxy-benzoylamino)-adamantan-1-yl]-amide], for which the Emax was in the range of 70 to 99%.

In the case of `O=C(NC12CC3CC(C1)CC(NC(=O)c1cn4ccccc4n1)(C3)C2)c1ccccn1` [Example 88, Imidazo[1,2-a]pyridine-2-carboxylic acid {3-[(pyridine-2-carbonyl)-amino]-adamantan-1-yl}-amide], the Emax lay in the range of 63 to 99%.

With `COCCN(C)c1cccc(C(=O)NC23CC4CC(CC(NC(=O)c5cccc(C)n5)(C4)C2)C3)n1` [Example 207, 6-[(2-Methoxy-ethyl)-methyl-amino]-pyridine-2-carboxylic acid{3-[(6-methyl-pyridine-2-carbonyl)-amino]-adamantan-1-yl}-amide], the Emax was 63 to 99%.

As to `Cc1cccc(C(=O)NC23CC4CC(C2)CC(NC(=O)C2CC(F)(F)C2)(C4)C3)n1` [Example 47, 6-Methyl-pyridine-2-carboxylic acid {3-[(3,3-difluoro-cyclobutanecarbonyl)-amino]-adamantan-1-yl}-amide], the Emax was in the range of 63 to 99%.

Regarding `Cc1ccnc(C(=O)NC23CC4CC(CC(NC(=O)c5ccncn5)(C4)C2)C3)n1` [Example 194, 4-Methyl-pyrimidine-2-carboxylic acid {3-[(pyrimidine-4-carbonyl)-amino]-adamantan-1-yl}-amide], the Emax fell in the range of 63 to 99%.

On to `Cn1ccc(C(=O)NC23CC4CC(CC(NC(=O)c5cccc(F)c5)(C4)C2)C3)n1` [Example 97, 1-Methyl-1H-pyrazole-3-carboxylic acid [3-(3-fluoro-benzoylamino)-adamantan-1-yl]-amide], for which the Emax fell in the range of 63 to 99%.

Regarding `Cc1cccc(C(=O)NC23CC4CC(C2)CC(NC(=O)c2cccc(N5CCC(O)CC5)n2)(C4)C3)n1` [Example 206, 4-Hydroxy-3,4,5,6-tetrahydro-2H-[1,2′]bipyridinyl-6′-carboxylic acid{3-[(6-methyl-pyridine-2-carbonyl)-amino]-adamantan-1-yl}-amide], the Emax fell in the range of 63 to 99%.

On to `Cc1cccc(C(=O)NC23CC4CC(C2)CC(NC(=O)c2cccc(NCCO)n2)(C4)C3)n1` [Example 208, 6-(2-Hydroxy-ethylamino)-pyridine-2-carboxylic acid {3-[(6-methyl-pyridine-2-carbonyl)-amino]-adamantan-1-yl}-amide], for which the Emax lay in the range of 63 to 99%.

On to `O=C(NC12CC3CC(C1)CC(NC(=O)C1CCCC1)(C3)C2)c1ccccn1` [Example 85, Pyridine-2-carboxylic acid [3-(cyclopentanecarbonyl-amino)-adamantan-1-yl]-amide], for which the Emax was 63 to 99%.

As to `Cn1nc(C(=O)NC23CC4CC(CC(NC(=O)c5ccccn5)(C4)C2)C3)cc1-c1cccs1` [Example 8, Pyridine-2-carboxylic acid {3-[(1-methyl-5-thiophen-2-yl-1H-pyrazole-3-carbonyl)-amino]-adamantan-1-yl}-amide], the Emax lay in the range of 90 to 99%.

For the compound `Cc1nc(C(=O)NC23CC4CC(CC(NC(=O)c5ccccn5)(C4)C2)C3)cs1` [Example 110, Pyridine-2-carboxylic acid {3-[(2-methyl-thiazole-4-carbonyl)-amino]-adamantan-1-yl)-amide], the Emax was in the range of 70 to 99%.

As for `CC(=O)NCCNc1cccc(C(=O)NC23CC4CC(CC(NC(=O)c5cccc(F)c5)(C4)C2)C3)n1` [Example 244, 6-(2-Acetylamino-ethylamino)-pyridine-2-carboxylic acid [3-(3-fluoro-benzoylamino)-adamantan-1-yl]-amide], the Emax lay in the range of 63 to 99%.

`Cc1cccc(C(=O)NC23CC4CC(C2)CC(NC(=O)c2cnc5ccccc5n2)(C4)C3)n1` [Example 34, Quinoxaline-2-carboxylic acid {3-[(6-methyl-pyridine-2-carbonyl)-amino]-adamantan-1-yl}-amide]: the Emax is 63 to 99%.

As for `Cc1cc(C(=O)NC23CC4CC(CC(NC(=O)c5ccccn5)(C4)C2)C3)nn1C` [Example 109, Pyridine-2-carboxylic acid {3-[(1,5-dimethyl-1H-pyrazole-3-carbonyl)-amino]-adamantan-1-yl}-amide], the Emax is 70 to 99%.

On to `CCOc1cc(C(=O)NC23CC4CC(C2)CC(NC(=O)c2cncc(C)n2)(C4)C3)ccn1` [Example 155, 6-Methyl-pyrazine-2-carboxylic acid {3-[(2-ethoxy-pyridine-4-carbonyl)-amino]-adamantan-1-yl}-amide], for which the Emax was in the range of 70 to 99%.

In the case of `Cc1cccc(C(=O)NC23CC4CC(CC(NC(=O)c5cc(Br)ccn5)(C4)C2)C3)n1` [Example 138, 6-Methyl-pyridine-2-carboxylic acid {3-[(4-bromo-pyridine-2-carbonyl)-amino]-adamantan-1-yl}-amide], the Emax lay in the range of 70 to 99%.

For the compound `O=C(NC12CC3CC(C1)CC(NC(=O)c1ccccn1)(C3)C2)c1ccc2nccn2c1` [Example 89, Imidazo[1,2-a]pyridine-6-carboxylic acid {3-[(pyridine-2-carbonyl)-amino]-adamantan-1-yl}-amide], the Emax was 63 to 99%.

With `Cc1cncc(C(=O)NC23CC4CC(CC(NC(=O)c5ccc(F)c(Cl)c5)(C4)C2)C3)n1` [Example 149, 6-Methyl-pyrazine-2-carboxylic acid [3-(3-chloro-4-fluoro-benzoylamino)-adamantan-1-yl]-amide], the Emax fell in the range of 70 to 99%.

`COCCNc1cccc(C(=O)NC23CC4CC(CC(NC(=O)c5cccc(F)c5)(C4)C2)C3)n1` [Example 245, 6-(2-Methoxy-ethylamino)-pyridine-2-carboxylic acid [3-(3-fluoro-benzoylamino)-adamantan-1-yl]-amide]: the Emax lay within 63 to 99%.

`Cn1ccc(C(=O)NC23CC4CC(C2)CC(NC(=O)c2ccn(C)n2)(C4)C3)n1` [Example 17, N,N′-(1,3-Adamantylene)bis(1-methyl-1H-pyrazole-3-carboxamide)]: the Emax was in the range of 63 to 99%.

`COc1cccc(C(=O)NC23CC4CC(CC(NC(=O)c5cncc(C)n5)(C4)C2)C3)c1F` [Example 167, 6-Methyl-pyrazine-2-carboxylic acid [3-(2-fluoro-3-methoxy-benzoylamino)-adamantan-1-yl]-amide]: the Emax lay in the range of 63 to 99%.

As for `Cc1cccc(C(=O)NC23CC4CC(C2)CC(NC(=O)c2ccn(C)n2)(C4)C3)n1` [Example 20, 6-Methyl-pyridine-2-carboxylic acid {3-[(1-methyl-1H-pyrazole-3-carbonyl)-amino]-adamantan-1-yl}-amide], the Emax lay within 63 to 99%.

Take `Cc1cc(F)cc(C(=O)NC23CC4CC(C2)CC(NC(=O)c2cncc(C)n2)(C4)C3)c1` [Example 158, 6-Methyl-pyrazine-2-carboxylic acid [3-(3-fluoro-5-methyl-benzoylamino)-adamantan-1-yl]-amide]: the Emax fell in the range of 70 to 99%.

Consider `Cc1cncc(C(=O)NC23CC4CC(CC(NC(=O)c5ccnc(Br)c5)(C4)C2)C3)n1` [Example 178, 6-Methyl-pyrazine-2-carboxylic acid {3-[(2-bromo-pyridine-4-carbonyl)-amino]-adamantan-1-yl}-amide], for which the Emax was in the range of 63 to 99%.

Take `Cc1cncc(C(=O)NC23CC4CC(CC(NC(=O)c5cc(Br)ccn5)(C4)C2)C3)n1` [Example 176, 6-Methyl-pyrazine-2-carboxylic acid {3-[(4-bromo-pyridine-2-carbonyl)-amino]-adamantan-1-yl}-amide]: the Emax lay within 63 to 99%.

On to `O=C(NC12CC3CC(C1)CC(NC(=O)c1ccccn1)(C3)C2)c1cccc(Cl)c1` [Example 6, Pyridine-2-carboxylic acid [3-(3-chloro-benzoylamino)-adamantan-1-yl]-amide], for which the Emax was in the range of 90 to 99%.

Take `Cc1cccc(C(=O)NC23CC4CC(CC(NC(=O)c5cc(C6CC6)on5)(C4)C2)C3)n1` [Example 26, 6-Methyl-pyridine-2-carboxylic acid {3-[(5-cyclopropyl-isoxazole-3-carbonyl)-amino]-adamantan-1-yl}-amide]: the Emax fell in the range of 63 to 99%.

Consider `Cc1cncc(C(=O)NC23CC4CC(C2)CC(NC(=O)c2cccc(F)n2)(C4)C3)n1` [Example 164, 6-Methyl-pyrazine-2-carboxylic acid {3-[(6-fluoro-pyridine-2-carbonyl)-amino]-adamantan-1-yl}-amide], for which the Emax was in the range of 63 to 99%.

With `CN(C)CCN(C)c1cccc(C(=O)NC23CC4CC(CC(NC(=O)c5ccccn5)(C4)C2)C3)n1` [Example 227, 6-[(2-Dimethylamino-ethyl)-methyl-amino]-pyridine-2-carboxylic acid {3-[(pyridine-2-carbonyl)-amino]-adamantan-1-yl}-amide], the Emax lay in the range of 63 to 99%.

As for `COCCCNc1cccc(C(=O)NC23CC4CC(CC(NC(=O)c5ccccn5)(C4)C2)C3)n1` [Example 220, 6-(3-Methoxy-propylamino)-pyridine-2-carboxylic acid {3-[(pyridine-2-carbonyl)-amino]-adamantan-1-yl}-amide], the Emax lay within 63 to 99%.

Still in this experiment, the particulars now being: positive modulation, increase in EC20 glutamate response.
As for `Cc1cncc(C(=O)NC23CC4CC(CC(NC(=O)c5cc(-c6ccccc6)ncn5)(C4)C2)C3)n1` [Example 257, 6-Phenyl-pyrimidine-4-carboxylic acid {3-[(6-methyl-pyrazine-2-carbonyl)-amino]-adamantan-1-yl}-amide], the EC50 (usually the concentration needed to bring the measured effect to its halfway point) was 830 nM and the maximum modulation is on record as 120%.
